The values that follow come from publication PMC10216478, “Development of a Non-Peptide Angiotensin II Type 1 Receptor Ligand by Structural Modification of Olmesartan as a Biased Agonist” (Biomedicines, 2023).

Each structure is given as a SMILES string.

The target of test [1] is T1, AT1 L112A receptor (Rattus norvegicus, UniProt P25095, L112A).
T1 construct: expressed in transfected cells; host or cells: COS7
T1 sequence (P25095 1-359 L112A): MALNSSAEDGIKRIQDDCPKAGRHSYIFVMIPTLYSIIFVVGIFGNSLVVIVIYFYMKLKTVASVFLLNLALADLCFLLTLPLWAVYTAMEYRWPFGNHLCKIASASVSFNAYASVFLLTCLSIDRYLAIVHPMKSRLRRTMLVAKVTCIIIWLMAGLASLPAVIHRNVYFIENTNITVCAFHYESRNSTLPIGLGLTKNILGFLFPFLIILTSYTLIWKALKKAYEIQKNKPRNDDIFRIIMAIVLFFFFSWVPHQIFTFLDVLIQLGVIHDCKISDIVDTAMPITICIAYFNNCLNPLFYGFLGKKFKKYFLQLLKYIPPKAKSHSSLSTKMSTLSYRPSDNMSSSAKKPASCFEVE
Put plainly: Immunoblotting of ERK 1/2 activation in COS7 cells overexpressing AT1-L112A receptor. It counts as cell-based. The note with it: 1 µM ligands or 0.1 µM Ang II, 10 min, n = 5, vs. (-). The protocol: (§1) The synthetic rat AT1 receptor gene, which was cloned in the shuttle expression vector pMT-2, was used for expression and mutagenesis, as described previously. […] In the experiments, cells were grown without a cell-growth supplement. To express the AT1 receptor protein, 10 µg of purified plasmid DNA per 10^7 cells was used in the transfection. Wild-type and mutated AT1 receptors were transiently transfected into cells using Lipofectamine 2000 liposomal reagent (Roche Applied Science, Penzberg, Germany). Cells were plated and grown and were 70–90% confluent at the time of transfection. We incubated plasmid DNA (10 µg)–lipid (10 µL) complexes for 5 min at room temperature and added and incubated the complexes with cells for 24 h. We then analyzed the parameters in transfected cells. […] Transfected cells that had been cultured for 48–72 h were harvested. Cell membranes were prepared using the nitrogen Parr bomb disruption or freeze–thaw methods.
In in vitro studies, ERK 1/2 activation by 1 µM ligands or 0.1 µM Ang II incubated for 10 min was measured using COS7 cells that overexpressed AT1 wild-type and mutant receptors. ERK activity was measured in cells maintained for 18 h in DMEM containing 0.1% serum. At the end of the stimulation, the culture medium was removed by aspiration, the cells were washed with ice-cold phosphate-buffered saline, and the dishes were frozen in liquid nitrogen. The cells were scraped using a scraper after melting, and the scraped cells were transferred to a tube. We homogenized the cells in lysis buffer plus protease inhibitors and determined the protein concentration using the bicinchoninic acid method. […] We fractionated total proteins using sodium dodecyl sulfate polyacrylamide gel electrophoresis; we then transferred the proteins to a Hybond nitrocellulose membrane and blocked the blotted membranes with 10% bovine serum albumin in tris-buffered saline buffer (50 mM Tris–HCl pH 7.6, 150 mM NaCl) for 1 h at room temperature. […] An enhanced chemiluminescent substrate system (Amersham, Buckinghamshire, UK) was used. The signal was independently quantified by digital image analysis (ImageJ, National Institutes of Health, Bethesda, MD, USA).

Test [2] has as its target T1, AT1 L112A receptor. Put plainly: IP production assay in COS7 cells expressing AT1-L112A receptor. The note with it: 1 µM ligands or 0.1 µM Ang II, 30 min, n = 5, vs. (-). It counts as cell-based. The procedure: as §1
Ligand (such as agonist or antagonist)-induced IP production through the AT1 receptor in transfected COS7 cells transiently expressing the AT1 receptor was measured to evaluate cell signaling as a second messenger for controlling blood pressure, since the increases in the intracellular Ca^2+ concentration were the result of IP accumulation, which indicated vasoconstriction. As a surrogate model with higher levels of AT1 receptor expression, COS7 cells are suitable for IP measurement because it is easy to detect differences in IP production. Cells were labeled for 24 h with [^3H]-myoinositol at 37 °C in DMEM containing 10% FBS. Next, the cells were washed with buffer 3 times and incubated with a medium containing 10 mM LiCl for 20 min; 0.1 µM Ang II or 1 µM ligands were added and incubation was continued for another 30 min at 37 °C. After incubation, the medium was removed, and total soluble IP was extracted from the cells using the perchloric acid extraction method, as described previously. Cells were plated at a field density of 5 × 10^3 cells/cm^2 in 60 mm dishes and cultured in a fresh growth medium at 37 °C in a DMEM 5% CO2 incubator. […] The culture medium was changed 48 h after transfection and 1.5 mL of 1 μCi/mL of [^3H]-myoinositol was added to each 60-mm dish at 37 °C in DMEM containing 10% FBS. After labeling, the cells were washed with buffer 3 times and incubated with a medium containing 10 mM LiCl for 20 min. The indicated concentration of ligands was added and incubation was continued for an additional 30 min at 37 °C. After incubation, the medium was removed, and total soluble IP was extracted from the cells using the perchloric acid extraction method. Total IP production was expressed as the sum of radioactivity, as described previously.

Take `CCCc1nc(C(C)(C)O)c(C(=O)O)n1Cc1ccc(-c2ccccc2-c2nnn[nH]2)cc1` [Olmesartan, olmesartan]: the ERK1/2 activation entry at AT1 L112A receptor [1] is “did not change ERK1/2 activation”. For the same compound, the “Effect on IP production” value at AT1 L112A receptor [2] is reported as “significant reduction in basal IP production levels”.

As to `CCCc1nc(C(C)(C)O)c(C(N)=O)n1Cc1ccc(-c2ccccc2-c2nnn[nH]2)cc1` [R239470], at AT1 L112A receptor [1], the ERK1/2 activation result is reported as “but not R239470, activated ERK1/2”. For the same compound, the “Effect on IP production” value at AT1 L112A receptor [2] was “none of the compounds (R239470, R781253, and R794847) affected IP production”.

`CCCc1nc(C(C)(C)O)c(C(=O)O)n1Cc1ccc(-c2cc(Cc3ccc(O)cc3)ccc2-c2nnn[nH]2)cc1` [R781253]: at AT1 L112A receptor [1], the ERK1/2 activation entry was “activated ERK1/2”. Also, the “Effect on IP production” value at AT1 L112A receptor [2] is “none of the compounds (R239470, R781253, and R794847) affected IP production”.

In the case of `CCCc1nc(C(C)(C)O)c(C(N)=O)n1Cc1ccc(-c2cc(Cc3ccc(O)cc3)ccc2-c2nnn[nH]2)cc1` [R794847], at AT1 L112A receptor [1], the ERK1/2 activation entry was “activated ERK1/2”. The “Effect on IP production” value on AT1 L112A receptor [2] is “none of the compounds (R239470, R781253, and R794847) affected IP production”.
